Data on one compound can be found in patent US20050175599A1, “Process for producing substance” (Kyowa Hakko Kogyo Co., Ltd., priority 2001, published 2005).

The experiment concerns transformant cell line 61-33γ (host YB2/0) producing a chimeric anti-GD3 antibody. The experiment in a line: Fed-batch culture of antibody-producing cells in Q10-containing medium (Example 2). The note with it: Q10-added culture, 50 μmol/L Q10 dissolved in Tween 80, fed-batch culture 11 days. It is filed as cell-based, rat. As for the experimental part: The following fed-batch culture was performed with transformant cell line 61-33γ (FERM BP-7325) which was obtained by using hybridoma cell line YB2/0 derived from a rat myeloma cell line as a host cell and produces a chimeric anti-GD3 antibody.
In a T-225 cm^2 flask charged with 30 mL of a serum-free medium (Hybridoma-SFM; manufactured by Invitrogen Corporation), the cells were inoculated to a cell density of 3×10^5 cells/mL, followed by stationary culture in a 5%-CO2 incubator at 37° C. for 3 days.
On the completion of culturing, the resulting cells were inoculated in a 1-liter spinner flask (manufactured by Shibata Hario, Co., Ltd.) containing 0.7 liter of Hybridoma-SFM to 3×10^5 cells/ml. While adjusting the liquid culture to pH 7.1 ±0.1 and the dissolved oxygen concentration to 3±0.2 ppm, culturing was carried out at 37° C. for 11 days under the condition of stirring at 50 rpm. Aeration was carried out via a porous polytetrafluoroethylene tube arranged in the spinner flask, and a mixture gas of air, oxygen and carbon dioxide was supplied. Additionally, the pH was controlled by changing the ratio of air and carbon dioxide and by feeding 1 mol/L sodium carbonate solution. Furthermore, the dissolved oxygen concentration was controlled by changing the ratio of air and oxygen. […]

Take `COC1=C(OC)C(=O)C(C/C=C(\C)CC/C=C(\C)CC/C=C(\C)CC/C=C(\C)CC/C=C(\C)CC/C=C(\C)CC/C=C(\C)CC/C=C(\C)CC/C=C(\C)CCC=C(C)C)=C(C)C1=O` [Q10]: the “cumulative number of cells on the completion of culturing” value (Q10-free culture 2.97×10^7) was 3.98×10^7 cells/ml×days. In addition, the “relative specific antibody production rate” value (Q10-free culture = 100%) worked out at 137.1%.
